Results reported in PMC5656517 (European journal of pharmaceutical sciences : official …, 2017).
In brackets after ≈: the same amount, converted by molar mass. Where two headings read alike, the source gives them in different places.

Key:
CYP1A2 [1] = molecular target: T1, CYP1A2 (Homo sapiens, UniProt P05177); test: Single concentration; settings: human liver microsomes
T1 sequence (P05177 1-516): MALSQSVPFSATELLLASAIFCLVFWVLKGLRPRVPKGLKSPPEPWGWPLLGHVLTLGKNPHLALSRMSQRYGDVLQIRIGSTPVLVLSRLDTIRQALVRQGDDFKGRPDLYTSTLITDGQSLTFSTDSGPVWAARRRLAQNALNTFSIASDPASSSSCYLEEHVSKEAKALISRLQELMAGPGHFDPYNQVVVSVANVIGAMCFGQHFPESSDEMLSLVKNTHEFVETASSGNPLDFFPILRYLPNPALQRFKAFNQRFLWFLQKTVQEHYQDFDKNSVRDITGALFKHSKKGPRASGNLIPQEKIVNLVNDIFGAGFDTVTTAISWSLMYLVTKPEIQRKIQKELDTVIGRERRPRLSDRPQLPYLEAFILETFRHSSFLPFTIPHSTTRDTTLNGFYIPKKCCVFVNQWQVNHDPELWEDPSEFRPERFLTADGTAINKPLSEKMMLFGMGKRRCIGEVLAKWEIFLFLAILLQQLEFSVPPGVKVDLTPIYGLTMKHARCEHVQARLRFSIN

CYP1A2 [2] = molecular target: T1, CYP1A2; test: Cocktail assay IC50 determination in human liver microsomes; settings: substrate phenacetin, mean ± standard deviation
CYP3A4 [3] = molecular target: T2, CYP3A4 (Homo sapiens, UniProt P08684); test: Single point time-dependent inhibition screening assay in human liver microsomes
Target sequence in this assay (P08684 whole entry): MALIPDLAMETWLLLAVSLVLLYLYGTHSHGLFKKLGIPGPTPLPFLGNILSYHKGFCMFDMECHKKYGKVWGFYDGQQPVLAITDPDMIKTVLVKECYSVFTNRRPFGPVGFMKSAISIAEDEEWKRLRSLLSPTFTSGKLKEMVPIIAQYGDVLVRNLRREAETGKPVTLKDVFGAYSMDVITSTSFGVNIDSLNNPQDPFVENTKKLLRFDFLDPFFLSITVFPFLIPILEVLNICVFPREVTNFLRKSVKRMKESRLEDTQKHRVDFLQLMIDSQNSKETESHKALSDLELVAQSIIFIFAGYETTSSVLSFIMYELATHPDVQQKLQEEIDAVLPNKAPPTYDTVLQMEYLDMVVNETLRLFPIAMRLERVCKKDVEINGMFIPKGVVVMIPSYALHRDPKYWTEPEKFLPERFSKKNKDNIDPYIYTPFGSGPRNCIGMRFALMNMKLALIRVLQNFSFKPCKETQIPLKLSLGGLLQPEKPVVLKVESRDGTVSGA

CYP2C19 [4] = molecular target: T3, CYP2C19 (Homo sapiens, UniProt P33261); test: Single concentration; settings: human liver microsomes
CYP2C19 [5] = molecular target: T3, CYP2C19; settings: human liver microsomes, substrate (S)-mephenytoin, mean ± standard deviation
CYP2C8 = molecular target: T4, CYP2C8 (Homo sapiens, UniProt P10632); test: Cocktail assay IC50 determination in human liver microsomes; settings: substrate amodiaquine, mean ± standard deviation
T4 sequence (P10632 1-490): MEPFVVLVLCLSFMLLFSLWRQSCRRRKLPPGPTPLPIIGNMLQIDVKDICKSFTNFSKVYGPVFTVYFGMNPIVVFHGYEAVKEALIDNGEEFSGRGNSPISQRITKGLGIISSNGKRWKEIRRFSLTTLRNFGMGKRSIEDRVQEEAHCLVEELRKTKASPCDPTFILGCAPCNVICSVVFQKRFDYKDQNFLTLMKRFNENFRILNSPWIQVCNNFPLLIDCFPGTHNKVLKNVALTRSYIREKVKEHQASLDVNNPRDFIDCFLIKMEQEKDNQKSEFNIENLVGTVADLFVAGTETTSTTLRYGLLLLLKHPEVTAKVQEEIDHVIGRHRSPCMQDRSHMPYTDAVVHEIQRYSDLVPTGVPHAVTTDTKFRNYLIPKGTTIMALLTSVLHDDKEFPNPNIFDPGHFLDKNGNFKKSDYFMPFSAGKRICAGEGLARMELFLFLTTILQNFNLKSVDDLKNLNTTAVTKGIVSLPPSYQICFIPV

CYP2E1 = CYP2E1 (Homo sapiens, UniProt P05181); test: as above; settings: substrate chloroxazone
CYP3A4 [6] = molecular target: T2, CYP3A4; assay type: in vitro ADME; settings: human liver microsomes, 100 µM
Target sequence in this assay (P08684 whole entry): as the sequence (P08684 whole entry) above

CYP2C = settings: ref He et al. (2015); cited from earlier work
CYP3A4 [7] = molecular target: T2, CYP3A4; test: Cocktail assay IC50 determination in human liver microsomes; settings: mean ± standard deviation
Target sequence in this assay (P08684 whole entry): as the sequence (P08684 whole entry) above

CYP2D6 = CYP2D6 (Homo sapiens, UniProt P10635); test: as above; settings: substrate dextromethorphan, mean ± standard deviation
CYP3A4 [8] = molecular target: T2, CYP3A4; test: Effect of washing to restore CYP3A4 activity, human liver microsomes; assay type: in vitro ADME; settings: 50 µM, 30 min preincubation, washed 3 times, midazolam
Target sequence in this assay (P08684 whole entry): as the sequence (P08684 whole entry) above

CYP2A6 = molecular target: T5, CYP2A6 (Homo sapiens, UniProt P11509); test: Cocktail assay IC50 determination in human liver microsomes; settings: substrate coumarin
T5 sequence (P11509 1-494): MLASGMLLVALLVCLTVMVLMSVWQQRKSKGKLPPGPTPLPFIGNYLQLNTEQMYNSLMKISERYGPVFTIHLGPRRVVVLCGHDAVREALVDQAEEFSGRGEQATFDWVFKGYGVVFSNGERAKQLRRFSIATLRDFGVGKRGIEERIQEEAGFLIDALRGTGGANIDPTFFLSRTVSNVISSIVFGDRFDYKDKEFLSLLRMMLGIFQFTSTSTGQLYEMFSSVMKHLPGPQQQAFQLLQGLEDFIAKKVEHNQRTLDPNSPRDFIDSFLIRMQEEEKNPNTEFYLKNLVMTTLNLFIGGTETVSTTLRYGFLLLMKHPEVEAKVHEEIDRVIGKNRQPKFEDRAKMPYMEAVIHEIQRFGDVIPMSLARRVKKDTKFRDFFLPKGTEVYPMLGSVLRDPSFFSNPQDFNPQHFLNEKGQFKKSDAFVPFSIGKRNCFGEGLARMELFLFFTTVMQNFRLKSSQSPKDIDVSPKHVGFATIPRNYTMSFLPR

CYP3A4 [9] = molecular target: T2, CYP3A4; test: Effect of washing to restore CYP3A4 activity, recombinant CYP3A4; assay type: in vitro ADME; settings: recombinant CYP3A4, 10 µM, 30 min preincubation, washed 3 times, midazolam
Target sequence in this assay (P08684 2-503 limits assumed): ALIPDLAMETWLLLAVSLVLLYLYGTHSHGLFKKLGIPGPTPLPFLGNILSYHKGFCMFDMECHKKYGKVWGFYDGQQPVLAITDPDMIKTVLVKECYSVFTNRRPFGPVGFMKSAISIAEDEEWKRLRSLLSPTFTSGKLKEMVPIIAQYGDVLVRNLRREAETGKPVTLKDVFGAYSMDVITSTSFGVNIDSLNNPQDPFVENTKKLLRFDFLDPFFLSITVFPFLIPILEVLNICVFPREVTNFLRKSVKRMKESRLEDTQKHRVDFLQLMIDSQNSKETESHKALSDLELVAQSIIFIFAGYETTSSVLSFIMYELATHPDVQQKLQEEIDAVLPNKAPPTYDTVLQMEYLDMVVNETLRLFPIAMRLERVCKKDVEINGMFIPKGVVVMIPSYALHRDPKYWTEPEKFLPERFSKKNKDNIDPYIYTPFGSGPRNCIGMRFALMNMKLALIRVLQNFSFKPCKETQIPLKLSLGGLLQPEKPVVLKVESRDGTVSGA

cytochrome P450 enzymes = test: Single concentration; settings: test concentration of 10 µM
CYP3A4 (testosterone) = settings: ref He et al. (2015); cited from earlier work
CYP3A4 [10] = molecular target: T2, CYP3A4; test: Single concentration; settings: human liver microsomes
Target sequence in this assay (P08684 whole entry): as the sequence (P08684 whole entry) above

T3 sequence (P33261 whole entry): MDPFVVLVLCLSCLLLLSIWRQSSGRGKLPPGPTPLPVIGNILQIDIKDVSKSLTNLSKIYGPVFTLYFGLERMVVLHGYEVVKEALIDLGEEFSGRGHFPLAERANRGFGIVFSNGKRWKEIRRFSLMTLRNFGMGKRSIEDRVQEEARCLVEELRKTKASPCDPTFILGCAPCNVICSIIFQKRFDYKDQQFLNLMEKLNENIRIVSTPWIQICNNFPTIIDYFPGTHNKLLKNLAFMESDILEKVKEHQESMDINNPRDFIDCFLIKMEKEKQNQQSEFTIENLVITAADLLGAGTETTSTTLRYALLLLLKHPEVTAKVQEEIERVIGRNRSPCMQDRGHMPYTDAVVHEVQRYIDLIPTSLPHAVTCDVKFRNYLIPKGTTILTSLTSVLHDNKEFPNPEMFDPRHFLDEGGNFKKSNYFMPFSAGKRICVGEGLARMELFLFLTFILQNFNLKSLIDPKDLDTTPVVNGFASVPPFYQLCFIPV
Sequence of CYP2D6 (P10635 whole entry): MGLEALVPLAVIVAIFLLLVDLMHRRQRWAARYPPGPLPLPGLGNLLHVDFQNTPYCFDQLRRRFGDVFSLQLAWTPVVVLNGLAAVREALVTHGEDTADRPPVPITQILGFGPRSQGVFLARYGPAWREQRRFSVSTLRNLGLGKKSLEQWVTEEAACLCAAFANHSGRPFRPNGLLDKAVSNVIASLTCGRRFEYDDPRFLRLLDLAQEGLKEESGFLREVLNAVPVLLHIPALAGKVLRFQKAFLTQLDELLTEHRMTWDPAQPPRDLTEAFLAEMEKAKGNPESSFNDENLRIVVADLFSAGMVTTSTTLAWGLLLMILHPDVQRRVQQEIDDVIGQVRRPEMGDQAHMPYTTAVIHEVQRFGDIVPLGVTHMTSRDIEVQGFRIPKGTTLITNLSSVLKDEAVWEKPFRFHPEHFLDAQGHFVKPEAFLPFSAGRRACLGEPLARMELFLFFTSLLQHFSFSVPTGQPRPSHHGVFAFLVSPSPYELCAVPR
Sequence of CYP2E1 (P05181 whole entry): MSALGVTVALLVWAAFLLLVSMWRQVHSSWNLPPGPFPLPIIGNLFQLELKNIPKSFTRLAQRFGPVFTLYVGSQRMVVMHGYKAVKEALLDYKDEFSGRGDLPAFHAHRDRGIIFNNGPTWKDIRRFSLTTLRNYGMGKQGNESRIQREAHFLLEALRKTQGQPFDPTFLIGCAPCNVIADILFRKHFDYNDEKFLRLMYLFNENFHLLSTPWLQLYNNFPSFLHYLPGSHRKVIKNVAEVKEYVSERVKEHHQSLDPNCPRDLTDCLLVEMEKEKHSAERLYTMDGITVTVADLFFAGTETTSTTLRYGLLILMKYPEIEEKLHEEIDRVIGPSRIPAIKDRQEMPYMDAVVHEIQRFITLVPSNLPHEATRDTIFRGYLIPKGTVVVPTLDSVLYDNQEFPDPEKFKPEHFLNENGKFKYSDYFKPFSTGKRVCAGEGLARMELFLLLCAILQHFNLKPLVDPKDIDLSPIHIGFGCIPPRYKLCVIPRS

C=CC(C)(C)c1cc(/C=C/C(=O)c2ccc(O)cc2)c(OC)cc1O [Licochalcone A, licochalcone A]
inhibition of CYP1A2 at 10 µM, in words (CYP1A2 [1]): weakly inhibited | IC50, CYP1A2 (CYP1A2 [2]): 12.40 ± 3.47 µg/mL (≈ 36.6 µM) | time-dependent inhibition of CYP3A4 (midazolam), in words (CYP3A4 [3]): demonstrated time-dependent inhibition | inhibition of CYP2C19 at 10 µM, in words (CYP2C19 [4]): moderate inhibitor | IC50, CYP2C19 (CYP2C19 [5]): 3.60 ± 0.79 µg/mL (≈ 10.6 µM) | IC50, CYP2C8 (CYP2C8): 1.05 ± 0.08 µg/mL (≈ 3.1 µM) | IC50, CYP2E1 (CYP2E1): >25 µg/mL | % Control activity (CYP3A4 [6]; NADPH, 2 mM glutathione): 38.5% | % Control activity (CYP3A4 [6]; NADPH, 1000 U/mL catalase): 42.4% | % Control activity (CYP3A4 [6]; NADPH, 1000 U/mL superoxide dismutase): 46.9% | % Control activity (CYP3A4 [6]; NADPH, mean of two experiments): 49.5% | % Control activity (CYP3A4 [6]; without NADPH, mean of two experiments): 100% | inhibition of CYP2C, in words (CYP2C): strongly inhibited | IC50, CYP3A4 (midazolam) (CYP3A4 [7]; substrate midazolam): 16.05 ± 1.91 µg/mL (≈ 47.4 µM) | IC50, CYP3A4 (testosterone) (CYP3A4 [7]; substrate testosterone): 6.78 ± 1.27 µg/mL (≈ 20 µM) | IC50, CYP2D6 (CYP2D6): 17.23 ± 1.68 µg/mL (≈ 50.9 µM) | remaining enzyme activity after washing out the inhibitor (CYP3A4 [8]): 57% | IC50, CYP2A6 (CYP2A6): >25 µg/mL | remaining enzyme activity after washing out the inhibitor (CYP3A4 [9]): 16.7% | inhibition of one or more cytochrome P450 enzymes (cytochrome P450 enzymes): more than 50% | inhibition of CYP3A4 (testosterone), in words (CYP3A4 (testosterone)): strongly inhibited | inhibition of CYP3A4 (testosterone) at 10 µM, in words (CYP3A4 [10]): moderate inhibitor
